This note sets out measurements from PubChem BioAssay AID489032 (Sanford-Burnham Center for Chemical Genomics, 2010).

Activity calls are given as the source filed them. How the calls were made is not given here.

This assay has as its system UPR adaptive arm reporter cells, luciferase luminescence. The assay can be described thus: adaptive unfolded protein response reporter activation – cell-based, luciferase luminescence, dose response (AID 489032).
With `CCCNC(=O)c1ccc2c(=O)c(O)c(-c3ccc(OC)cc3)[nH]c2c1`, the EC50 (usually the concentration needed to bring the measured effect to its halfway point) was > 80 µM (inactive). As to `CCOc1ccc(C(=O)Nc2cc(-c3nc4ccccc4[nH]3)ccc2Cl)cc1[N+](=O)[O-]`, the EC50 is 24.2 µM (inactive). Take `Nc1c(C(=O)Nc2ccc(S(=O)(=O)N3CCCC3)cc2)sc2nc3ccc(OC(F)(F)F)cc3cc12`: the concentration for a half-maximal effect (EC50) was 12 µM. The same measure for `CCOC(=O)c1cc(-c2ccccc2)sc1NC(=O)c1ccc(OC)cc1`: > 80 µM (inactive); for `COc1ccc(-c2nn(C)c(=O)c3ccccc23)cc1NC(=O)Cn1nc(C)c2ccccc2c1=O`: 28 µM (inactive); for `COC(=O)c1c(C)oc2ccc(N(C(=O)Oc3ccccc3)S(=O)(=O)c3ccc(Cl)c([N+](=O)[O-])c3)cc12`: 20.1 µM (inactive). `O=c1cc2oc3cc(O)c(O)cc3c(-c3ccccc3[N+](=O)[O-])c-2cc1O`: the EC50 is > 80 µM (inactive). With `COc1cc2nc(N3CCN(c4cc(C)ccc4C)CC3)nc(N)c2cc1OC`, the EC50 was > 80 µM (inactive). The figure for `COc1ccc(-c2ccc(C#N)c(SCC(=O)Nc3sc4c(c3C#N)CCC4)n2)cc1OC` is > 80 µM (inactive). The figure for `COc1ccc2cc3c(N)nn(C(=O)C4CCC(C(C)(C)C)CC4)c3nc2c1` (stereo not given) is > 80 µM (inactive). The figure for `Cc1ccc(C(=O)Nc2cc(S(=O)(=O)N3CCOCC3)ccc2N2CCCC2)cc1` is 63.2 µM (inactive).

As for `COc1cc(/C=N/Nc2nc(Nc3ccccc3)nc(-n3nc(C)cc3C)n2)cc(OC)c1OC`, the EC50 was > 80 µM (inactive). The same measure for `c1ccc(N=Nc2ccc3cccccc2-3)cc1`: > 80 µM (inactive). On to `Cc1ccc(-c2[nH]ncc2/C=N/n2c(COc3ccccc3)nc3ccccc3c2=O)cc1`, for which the EC50 was > 80 µM (inactive). The figure for `Oc1ccc(/C=N/Nc2nc(N3CCCC3)nc(N3CCCC3)n2)cc1O` is > 80 µM (inactive); for `COc1ccc(-c2ccc3c(c2)S(=O)(=O)c2cccc(C(=O)NCCOc4ccccc4Cl)c2C3=O)cc1OC` it is > 80 µM (inactive). For the compound `CCOC(=O)C1=C(C)N=C2c3ccccc3C(=O)C2C1c1ccc(C)cc1` (stereo not given), the EC50 was > 80 µM (inactive).

Take `O=C(/C(=N/N=C/c1ccc(O)c(O)c1)c1ccccc1)c1ccccc1`: the EC50 is > 80 µM (inactive). The figure for `COc1ccc(C(=O)O/N=C/c2c(C(F)(F)F)nn(C)c2SCc2ccccc2Cl)cc1` is > 80 µM (inactive); for `Cc1nc2cc(NC(=O)CSc3nc4c(C)cccc4cc3C#N)ccc2s1` it is > 80 µM (inactive). The figure for `Cc1ccc2c(c1)C(=O)C(=O)N2Cc1ccc(C(F)(F)F)cc1` is 27.5 µM (inactive); for `CCOc1cc(/C=N\Nc2ccc([N+](=O)[O-])cc2)ccc1OCC(=O)Nc1ccc(C)c(C)c1` it is 43.2 µM (inactive). Turning to `NS(=O)(=O)c1ccc(NC(=O)COC(=O)c2cn(-c3ccccc3)nc2-c2ccc(F)cc2)cc1`, the EC50 was > 80 µM (inactive). The figure for `OCCNc1nc(Nc2ccc(Cl)c(Cl)c2)nc2ccccc12` is > 80 µM (inactive); for `O=c1cc(CN2CCN(c3ccc(F)cc3)CC2)c2cc3c(cc2o1)CCCC3` it is 17.6 µM.

`CCOc1cc(/C=N/NC(=O)Cn2nc([N+](=O)[O-])cc2C)cc(Br)c1OCc1ccccc1C`: the EC50 was > 80 µM (inactive).

For `COc1cccc(-n2c(SCC(=O)N3CCc4ccccc43)nnc2-c2c[nH]c3ccccc23)c1`, the EC50 was > 80 µM (inactive). On to `O=C(N/N=C/C(Br)=C\c1ccccc1)c1n[nH]c2c1CCC2`, for which the EC50 is > 80 µM (inactive). The figure for `COc1cc(SC#N)ccc1N=Cc1c(C)[nH]n(-c2ccc(C)c(C)c2)c1=O` is > 80 µM (inactive). The figure for `CCOC(=O)c1c(NC(=O)c2cc3n(n2)C(C(F)(F)F)CC(c2cccs2)N3)sc(C)c1C` (stereo not given) is 15.9 µM; for `O=C(Oc1ccc(F)cc1C(=O)/C=C/c1cccs1)c1cccc([N+](=O)[O-])c1` it is 51.3 µM (inactive); for `Brc1cc(Br)c2ncnc(N3CCCCC3)c2c1` it is 44.5 µM (inactive).

In the case of `O=C1Nc2ccccc2/C1=C/c1ccc([N+](=O)[O-])cc1`, the EC50 is > 80 µM (inactive). The figure for `N#CCC(=O)N/N=C/c1cn(Cc2cccc3ccccc23)c2ccccc12` is > 80 µM (inactive); for `Cc1ccc(F)cc1N=Cc1c(O)c2ccccc2oc1=O` it is 10.1 µM. Consider `COc1ccc(C2CC(c3c(-c4ccccc4)c4cc(Cl)ccc4[nH]c3=O)=NN2S(C)(=O)=O)cc1` (stereo not given), for which the EC50 is > 80 µM (inactive). For `COc1ccc(-c2nn(-c3ccccc3)cc2/C=C/C(=O)OCC(=O)Nc2cccc(C#N)c2)cc1`, the concentration giving a half-maximal response (EC50) is 11.9 µM. The figure for `COc1cccc(-c2c(-c3cc(OC)cc(OC)c3)n(C)c3ccc(-c4cnc(N5CCOCC5)nc4)cc23)c1` is 54.9 µM (inactive); for `Cc1ccc(C2=Nc3ccc(Br)cc3C(c3ccncc3)=NN2)cc1` it is 24 µM (inactive); for `OC(CNCC1CCCO1)Cn1c2ccc(Br)cc2c2cc(Br)ccc21` (stereo not given) it is > 80 µM (inactive). The figure for `Cc1ccc2c(c1)C(=O)C(=O)N2Cc1ccc(Cl)cc1` is 57.2 µM (inactive); for `CCc1nn(-c2cc(Oc3cccc4ccccc34)nc(-c3ccccc3)n2)c(N)c1C#N` it is 49.2 µM (inactive); for `O=C(C[C@@H]1C/C=C/CC[C@H](Cc2ccc(F)cc2)C(=O)OC[C@@H](Cc2ccccc2)NC1=O)N[C@H](CO)Cc1ccccc1` it is 18.8 µM.

`COC(=O)c1sccc1NC(=O)c1cc(-c2cccc(C)c2)nc2ccccc12`: the EC50 was > 80 µM (inactive). The figure for `N#Cc1ccccc1NC(=O)COc1c(Br)cc(Br)c2cccnc12` is > 80 µM (inactive). The same measure for `O=C(N/N=C/c1ccc(Cl)cc1)c1sccc1OCc1ccc(F)cc1`: 49.3 µM (inactive); for `CCOc1ccc(/C=C/C(O)=C2/C(=O)NC3(C)CC2c2ccccc2O3)cc1OC` (stereo not given): > 80 µM (inactive); for `Cc1ccc2c(c1)C(c1ccc(N3CCOCC3)cc1)=NNC(c1cccs1)=N2`: 46.9 µM (inactive). As for `CC(C)c1ccc(/C=C/C(=O)Nc2nc3ccc([N+](=O)[O-])cc3s2)cc1`, the EC50 is > 80 µM (inactive).

Regarding `COc1cc([C@H]2c3[nH]c4ccccc4c3C[C@H]3C(=O)N4[C@@H](c5cc(OC)c(OC)c(OC)c5)c5[nH]c6ccccc6c5C[C@H]4C(=O)N23)cc(OC)c1OC`, the EC50 was 12.1 µM. The same measure for `CCc1ccc(-c2cc(C(F)(F)F)n3nc(C(=O)Nc4cnn(Cc5ccc(C)cc5)c4)cc3n2)s1`: 4.24 µM.

Take `COc1ccc(-c2nn(-c3ccccc3)cc2/C=N/N2C(=O)CSC2=S)cc1`: the EC50 was > 80 µM (inactive).

With `N#C/C(=C\Nc1ccc2cn[nH]c2c1)c1nc(-c2ccc(Cl)cc2)cs1`, the 50% effective concentration (EC50) was 15.1 µM. The same measure for `COc1ccccc1-c1cc(-c2ccccc2)nc(SC(C(N)=O)c2ccccc2)c1C#N` (stereo not given): 71.2 µM (inactive); for `COc1ccc(C2c3ccc4ccccc4c3Oc3ncn(CCCN(C)C)c(=N)c32)cc1` (stereo not given): > 80 µM (inactive); for `CN(/N=C\c1ccc(O)c(O)c1)c1nc(-c2ccccc2)cc(-c2ccccc2)n1`: 8.69 µM. The figure for `O=c1oc(CCCO)cc2ccc(/C=C/c3cccc([N+](=O)[O-])c3)cc12` is 36.8 µM (inactive). The figure for `Nc1nc(Nc2cccc(C(F)(F)F)c2)nc(C(F)(F)F)n1` is 56.6 µM (inactive). Take `O=C(Nc1ccc2oc(-c3ccccc3Cl)nc2c1)c1cncc(Br)c1`: the EC50 was > 80 µM (inactive).

For `O=C(Nc1ccc(-c2nc3cc(NC(=O)c4cccs4)ccc3o2)cc1)c1cccs1`, the EC50 was 4.31 µM. The same measure for `CN(C)CC/C=C1\c2ccc(F)cc2Sc2cc(F)c(Cl)cc21`: 15.8 µM; for `COc1ccccc1N=Cc1c(O)c2ccccc2oc1=O`: 16.4 µM. The figure for `C/C(=N\Nc1ncnc2sc(C)c(C)c12)c1ccccn1` is > 80 µM (inactive); for `C=CCOc1ccc2cccc(/C=N/NC(=O)c3cc4cc([N+](=O)[O-])ccc4s3)c2c1` it is 43.5 µM (inactive); for `CC1CCc2cc(F)ccc2N1C(=O)CSc1nnc2c(n1)[nH]c1ccc(F)cc12` (stereo not given) it is > 80 µM (inactive). The same measure for `COc1ccc2oc(-c3ccc(C)c(NC(=O)c4ccc(N5CCOCC5)c([N+](=O)[O-])c4)c3)nc2c1`: > 80 µM (inactive). In the case of `Cn1nc(C(F)(F)F)c(/C=N/OC(=O)c2ccccc2Cl)c1SCc1ccccc1Cl`, the EC50 is 22.2 µM (inactive). The figure for `Brc1ccc(-c2ccc(/C=N/Nc3nncc(-c4ccccc4)n3)o2)cc1` is 77.6 µM (inactive); for `COc1c(Cl)cc(Cl)cc1/C=N/NC(=O)c1nnn(-c2nonc2N)c1CN1CCC(C)CC1` it is 50 µM (inactive); for `CCOc1cccc(C(=O)Nc2cccc(-c3nnc(-c4ccc(C)cc4)o3)c2)c1` it is > 80 µM (inactive).

Consider `Cc1cc(C)c2c(c1)/C(=N/Nc1ccc(S(N)(=O)=O)cc1[N+](=O)[O-])CCC2`, for which the EC50 was > 80 µM (inactive).

Take `Cc1cccc2c1Sc1ccc(Cl)cc1CC2N1CCNCC1` (stereo not given): the EC50 was > 80 µM (inactive). For the compound `Cc1ccc(-c2nnn(CC(=O)Nc3ccc(S(=O)(=O)N4CCC(C)CC4)cc3)n2)cc1`, the EC50 was > 80 µM (inactive). The figure for `O=C(/C=C\c1cn(-c2ccccc2)nc1-c1ccccc1)Nc1nccs1` is > 80 µM (inactive); for `CCOC(=O)N1CCN(S(=O)(=O)c2ccc(C(=O)Nc3nc4c(s3)CC(C)CC4)cc2)CC1` (stereo not given) it is > 80 µM (inactive); for `COc1ccc(-c2nnc(SCC(=O)Nc3sc4c(c3C#N)CCCC4)n2-c2ccccc2)cc1` it is > 80 µM (inactive). The same measure for `CCn1cc(C(=O)NC(=S)Nc2sc3c(c2C(=O)OC)CCCCCC3)cn1`: > 80 µM (inactive); for `Cc1ccc2nc(N(CCCN(C)C)C(=O)c3ccc(S(=O)(=O)N4CCc5ccccc5C4)cc3)sc2c1`: > 80 µM (inactive); for `C/C(CC(C)(C)C1CCCCC1)=N\NC(N)=S`: > 80 µM (inactive). The figure for `CCN(CC)c1ccc(/C=C/[N+](=O)[O-])cc1` is 19.4 µM.
